# Source: PMC6615261, “Repurposing Azithromycin and Rifampicin Against Gram-Negative Pathogens by Combination With Peptidomimetics” (Frontiers in Cellular and Infection Microbiology, 2019)
# Where two headings read alike, the source gives them in different places.
# Legend:
# K. pneumoniae ST258 [1] = experiment: Potentiation of additional antibiotics (COMPAN1F plates), MIC; type: cell-based, Klebsiella pneumoniae
# Experimental: (§1) Minimal inhibitory concentrations (MICs) of peptidomimetics, antibiotics and their combinations were determined by broth microdilution according to the Clinical Laboratory Standards Institute performance standards (Clinical and Laboratory Standards Institute, [2013]). […] Since rifampicin and azithromycin mainly are used to treat infections with Gram-positive pathogens only CLSI clinical breakpoints were available for such bacteria. […] Potentiation of additional antibiotics by peptidomimetics was determined by using commercial 96-well plates containing varied concentrations of standard antibiotics (COMPAN1F; Trek Diagnostic Systems Inc.). The peptidomimetics were added immediately prior to inoculation with pathogen, and then MICs were determined as above. The MICs of peptidomimetic/antibiotic combinations were determined according to the method above, and the concentration ratios were selected based upon checkerboard results with 2:1 and 1:4 ratio of peptidomimetic with rifampicin or azithromycin, respectively. Minimal bactericidal concentrations (MBCs) were determined by using growth-curve assay plates. MIC plates were prepared as above, and then the plates were incubated at 37°C with continuous shaking. Growth was recorded at 10 min intervals as optical density (OD) at 600 nm during 24 h. At 24 h, for wells without growth, a sample was diluted 10-fold in sterile saline (0.9% sodium chloride) and plated onto MHA, following CLSI guidelines (Clinical and Laboratory Standards Institute, [1999]).
# K. pneumoniae ST258 [2] = test system: K. pneumoniae ST258
# Experimental: (§2) The potential synergistic effects in peptidomimetic-antibiotic combinations were assessed by using a two-dimensional checkerboard assay (Garcia, [2010]). Briefly, twofold dilutions of peptide and antibiotic were prepared in MBH II media along the X- and Y-axis, respectively, in 96-well plates. The inoculum was added to the plates, and subsequently these were incubated for 18–20 h. All steps for inoculum preparation and broth microdilution were in accordance with the CLSI guidelines (Clinical and Laboratory Standards Institute, [2013]). The fractional inhibitory concentration index (FICI) was calculated as [MICA(A+B)/MICA(alone)] + [MICB(A+B)/MICB(alone)], where MICA(A+B) represents the MIC of antibiotic (A) in combination with peptidomimetic (B), while MICB(A+B) represents the MIC of peptidomimetic (B) in combination with antibiotic (A). MICA(alone) and MICB(alone) represent the MIC of each compound individually. FICI values of ≤0.5 were interpreted as synergy.
# E. coli ST131 [3] = experiment: Potentiation of additional antibiotics (COMPAN1F plates), MIC; type: cell-based, Escherichia coli
# Experimental: as §1
# E. coli ST131 [4] = experiment: MIC by broth microdilution; type: cell-based, Escherichia coli
# Experimental: as §1
# P. aeruginosa ATCC 27853 [5] = test system: P. aeruginosa ATCC 27853
# Experimental: as §2
# E. coli ST131 [6] = test system: E. coli ST131
# Experimental: as §2
# [7] = MTS/PMS cell viability assay; type: cell-based; conditions: human, HepG2 hepatocytes, 1 h exposure, read-out: Cytotoxicity HepG2 EC50 ± SD
# Experimental: (§3) NIH 3T3 and HepG2 cells (both from ATCC, Manassas, VA, USA) were cultured in flat-bottomed 96-well MicroWell™ plates (NUNC, Roskilde, Denmark) at seeding densities of ~23,000 and ~22,000 cells/well, respectively, and then cultured for 22–24 h under standard culturing conditions (37°C, 5% CO2, humidified air) to reach 80–90% confluence. NIH 3T3 were cultured in Dulbecco's modified Eagle's medium (DMEM) supplemented with 10% (v/v) newborn-calf serum (NCS) (Gibco, Paisly, UK), while HepG2 were cultured in Eagle's minimum essential medium (EMEM) supplemented with 10% (v/v) fetal bovine serum (FBS, Gibco, Paisly, UK), sodium pyruvate (1 mM), and non-essential amino acids (1%, v/v). Both culturing media were further supplemented with penicillin (100 U/mL), streptomycin (100 μg/mL), and L-glutamine (2 mM).
# (§4) Effect on cell viability was determined in NIH 3T3 fibroblasts and HepG2 hepatocytes by using the MTS/PMS assay measuring metabolic activity. Briefly, the adhered cells were washed with 37°C Hanks' balanced salt solution (HBSS from Sigma-Aldrich, St. Louis, MO, USA), containing 10 mM HEPES (AppliChem, Darmstadt, Germany), and adjusted to pH 7.4, and were then exposed for 1 h to 100 μL of test compound(s) dissolved in the appropriate culturing medium without serum for each cell line. After exposure the cells were washed with HBSS containing 10 mM HEPES (pH 7.4) and 100 μL of an MTS/PMS solution, consisting of 240 μg/mL MTS (Promega, Madison, WI, USA) and 2.4 μg/mL PMS (SigmaAldrich, Buchs, Switzerland) in HBSS, was added to the cells, which then were incubated for 1 h at 37°C with horizontal shaking under light protection. Absorbance was measured at 492 nm by using a POLARstar OPTIMA plate reader (BMG Labtech, Offenburg, Germany). The relative viability was calculated according to Equation (1) with absorbance values obtained after incubation of cells with test compound; incubation with SDS (0.2%, w/v in medium) defined 100% cell death (Abspos), while the absorbance of cells incubated with medium defined 0% cell death (Absneg).
# (§5) (1) Relative viability(%)=(Abssample-Abspos)/(Absneg-Abspos)×100%
# (§6) EC50 values were calculated by using GraphPad Prism 7 (GraphPad Software, La Jolla, CA, USA) via fitting of the relative cell viability to the concentration of the test compound by using Equation (2):
# (§7) (2) Relative viability(%)= Top-Bottom/1+10^(LogIC50-Log[peptidomimetic]) ×Hill slope
# (§8) With top and bottom representing the mean highest and lowest observed values, respectively. The Hill slope represents a factor for the steepness of the linear part of the curve. In order to prevent erroneous calculation, the top and bottom values were constrained to 100 and 0%, respectively. Data were collected from technical triplicates. The selectivity index was calculated as the average effect on cell viability (EC50 values for HepG2 and NIH 3T3 cells) divided by the MIC.
# [8] = MTS/PMS cell viability assay; type: cell-based, mouse; conditions: mouse, NIH 3T3 fibroblasts, 1 h exposure, read-out: Cytotoxicity NIH 3T3 EC50 ± SD
# Experimental: as §3, §4, §5, §6, §7, §8
# K. pneumoniae ST258 [9] = experiment: MIC by broth microdilution; type: cell-based, Klebsiella pneumoniae
# Experimental: as §1
# K. pneumoniae ST258 [10] = experiment: Screening of peptidomimetic-antibiotic combinations (growth / growth inhibition); type: cell-based, Klebsiella pneumoniae; set-up: key to Growth in combination with RIF / Growth in combination with AZM: Growth (+); growth inhibition (–)
# Experimental: as §1
# NIH 3T3 and HepG2 cells = experiment: Effect on viability of mammalian cells (both cell lines); type: cell-based, mouse and human
# Experimental: as §3, §4, §5, §6, §7
# With top and bottom representing the mean highest and lowest observed values, respectively. The Hill slope represents a factor for the steepness of the linear part of the curve. […] The selectivity index was calculated as the average effect on cell viability (EC50 values for HepG2 and NIH 3T3 cells) divided by the MIC.
# P. aeruginosa ATCC 27853 [11] = experiment: MIC by broth microdilution; type: cell-based, Pseudomonas aeruginosa
# Experimental: as §1
# MDR E. coli ST131 = experiment: Screening of peptidomimetic-antibiotic combinations (growth / growth inhibition); type: cell-based, Escherichia coli; set-up: key to Growth in combination with RIF / Growth in combination with AZM: Growth (+); growth inhibition (–)
# Experimental: as §1
# [12] = average of EC50 (HepG2, NIH 3T3) divided by MIC
# [13] = MIC of azithromycin combined with the labelled peptidomimetic
# [14] = MIC of rifampicin combined with the labelled peptidomimetic
# [15] = 0.5 μM peptidomimetic + 0.5 μg/mL rifampicin
# [16] = peptidomimetic 0.5 μM + azithromycin 1 μg/mL
# [17] = peptidomimetic 0.5 μM + rifampicin 0.5 μg/mL
structure (smiles),measurement,setting,value
CCC[C@@H]1C[C@@H](C(=O)N[C@@H]([C@H]2O[C@H](SC)[C@H](O)[C@@H](O)[C@H]2O)[C@H](C)Cl)N(C)C1 [Clindamycin],MIC of antibiotic in presence of peptidomimetic 1,K. pneumoniae ST258 [1]; + 1 μM peptidomimetic 1,>4 µg/mL
same,MIC of antibiotic in presence of peptidomimetic 15,K. pneumoniae ST258 [1]; + 1 μM peptidomimetic 15,>4 µg/mL
same,MIC of antibiotic in presence of peptidomimetic 26,K. pneumoniae ST258 [1]; + 1 μM peptidomimetic 26,2 µg/mL
same,MIC,"K. pneumoniae ST258 [1]; Klebsiella pneumoniae, no peptidomimetic, read-out: MIC of antibiotic alone",> 4 µg/mL
same,MIC of antibiotic alone,K. pneumoniae ST258 [1]; no peptidomimetic,>4 µg/mL
same,Antibiotic MIC alone,K. pneumoniae ST258 [2]; checkerboard,125 µg/mL
same,MIC of antibiotic in presence of peptidomimetic 26,E. coli ST131 [3]; + 0.25 μM peptidomimetic 26,>4 µg/mL
same,MIC of antibiotic in presence of peptidomimetic 1,E. coli ST131 [3]; + 0.5 μM peptidomimetic 1,4 µg/mL
same,MIC of antibiotic in presence of peptidomimetic 15,E. coli ST131 [3]; + 0.5 μM peptidomimetic 15,>4 µg/mL
same,MIC,"E. coli ST131 [3]; Escherichia coli, no peptidomimetic, read-out: MIC of antibiotic alone",> 4 µg/mL
"C[C@@H](c1ccccc1)N(CCC(N)=O)C(=O)[C@H](CCCCNC(=N)N)NC(=O)CCN(C(=O)[C@H](CCCCN)NC(=O)CCN(C(=O)[C@H](CCCCNC(=N)N)NC(=O)CCN(C(=O)[C@H](CCCCN)NC(=O)CCN(C(=O)[C@H](CCCCNC(=N)N)NC(=O)CCN(C(=O)[C@H](CCCCN)NC(=O)CNCCCNCCCCNCCCN)[C@@H](C)c1ccccc1)[C@@H](C)c1ccccc1)[C@@H](C)c1ccccc1)[C@@H](C)c1ccccc1)[C@@H](C)c1ccccc1 [Peptidomimetic 26, Spermine-(Lys-βNspe-hArg-βNspe)3-NH2]",Selectivity Index (SI) E. coli ST131,E. coli ST131 [4]; [12],(56)
same,MIC E. coli ST131,E. coli ST131 [4]; peptidomimetic alone,1 µM
same,Antibiotic MIC in combination (AZM),"P. aeruginosa ATCC 27853 [5]; P. aeruginosa ATCC 27853, MIC of azithromycin combined with the labelled peptidomimetic",0.5 µg/mL
same,Antibiotic MIC in combination (RIF),"P. aeruginosa ATCC 27853 [5]; P. aeruginosa ATCC 27853, MIC of rifampicin combined with the labelled peptidomimetic",0.06 µg/mL
same,Peptidomimetic MIC alone,"P. aeruginosa ATCC 27853 [5]; P. aeruginosa ATCC 27853, checkerboard",2 µM
same,Peptidomimetic MIC in combination,"P. aeruginosa ATCC 27853 [5]; P. aeruginosa ATCC 27853, combined with AZM",1 µM
same,Peptidomimetic MIC in combination,"P. aeruginosa ATCC 27853 [5]; P. aeruginosa ATCC 27853, combined with RIF",0.5 µM
same,Reduction of the MIC of azithromycin,"P. aeruginosa ATCC 27853 [5]; P. aeruginosa, sub-MIC concentrations of peptidomimetic",32- to 512 fold
same,Antibiotic MIC in combination (CLI),K. pneumoniae ST258 [2]; MIC of CLI combined with the labelled peptidomimetic,4 µg/mL
same,Antibiotic MIC in combination (AZM),K. pneumoniae ST258 [2]; [13],8 µg/mL
same,Antibiotic MIC in combination (RIF),K. pneumoniae ST258 [2]; [14],0.06 µg/mL
same,Peptidomimetic MIC alone,K. pneumoniae ST258 [2]; checkerboard,8 µM
same,Peptidomimetic MIC in combination,K. pneumoniae ST258 [2]; combined with AZM,0.5 µM
same,Peptidomimetic MIC in combination,K. pneumoniae ST258 [2]; combined with CLI,0.5 µM
same,Peptidomimetic MIC in combination,K. pneumoniae ST258 [2]; combined with RIF,0.5 µM
same,Antibiotic MIC in combination (AZM),E. coli ST131 [6]; [13],1 µg/mL
same,Antibiotic MIC in combination (RIF),E. coli ST131 [6]; [14],0.5 µg/mL
same,Peptidomimetic MIC alone,E. coli ST131 [6]; checkerboard,1 µM
same,Peptidomimetic MIC in combination,E. coli ST131 [6]; combined with AZM,0.25 µM
same,Peptidomimetic MIC in combination,E. coli ST131 [6]; combined with RIF,0.25 µM
same,EC50 at 1 h,[7],59.6 ± 0.71 µM
same,EC50 at 1 h,[8],53.2 ± 2.94 µM
same,Selectivity Index (SI) K. pneumoniae ST258,K. pneumoniae ST258 [9]; [12],(7)
same,MIC K. pneumoniae ST258,K. pneumoniae ST258 [9]; peptidomimetic alone,8 µM
same,Screening result with rifampicin,K. pneumoniae ST258 [10]; [15],inhibit growth
same,Growth in combination with AZM,K. pneumoniae ST258 [10]; [16],+
same,Growth in combination with RIF,K. pneumoniae ST258 [10]; [17],–
same,EC50,NIH 3T3 and HepG2 cells,50 to 60 µM
same,Selectivity Index (SI) P. aeruginosa ATCC 27853,P. aeruginosa ATCC 27853 [11]; [12],(28)
same,MIC P. aeruginosa ATCC 27853,P. aeruginosa ATCC 27853 [11]; peptidomimetic alone,2 µM
same,Screening result with rifampicin,MDR E. coli ST131; [15],inhibit growth
same,Growth in combination with AZM,MDR E. coli ST131; [16],–
same,Growth in combination with RIF,MDR E. coli ST131; [17],–
